This note sets out measurements from patent US12371428B2 (Exelixis, Inc., priority 2019, dated 2025).

In experiment [1] the target is KDR (phospho-KDR, VEGF165-stimulated HUVEC cells) (Homo sapiens (Human), UniProt P35968). The experiment can be described thus: KDR autophosphorylation ELISA in HUVEC cells (Example G). In kind it is cell-based. The note with it: cellular activity; KDR autophosphorylation ELISA in HUVEC cells. The method, boiled down: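 HUVECs were serum-starved 24 h, given compound as an 8-point dilution series (0.3% DMSO final) for 1 h, then stimulated with 100 ng/mL VEGF165 for 5 min. Lysate phospho-KDR was quantified by sandwich ELISA against a phospho-KDR standard, and IC50s came from a 4-parameter logistic fit.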
In general terms: In an ELISA, binding on a coated surface is turned into a signal by an enzyme label.

Experiment [2] deals with Met (phospho-Met, HGF-stimulated PC-3 prostate cancer cells) (Homo sapiens (Human), UniProt P08581). The experiment is described as follows: Met autophosphorylation ELISA in PC-3 cells (Example F). In kind it is cell-based. Particulars: cellular activity; Met autophosphorylation ELISA in PC-3 cells; read-out: c-Met IC50. The method, boiled down:
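Serum-starved (3 h) PC-3 cells were treated 1 h with compounds (8-point curve, 0.3% DMSO), then stimulated with 100 ng/mL human HGF for 10 min. Lysate phospho-Met (panTyr) was measured by sandwich ELISA, normalised to DMSO and reference-inhibitor controls. IC50 came from 4-parameter logistic fit.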

Where a name gives a salt, the structure may show the parent alone.

Sequence of KDR (phospho-KDR, VEGF165-stimulated HUVEC cells) (P35968 20-1356): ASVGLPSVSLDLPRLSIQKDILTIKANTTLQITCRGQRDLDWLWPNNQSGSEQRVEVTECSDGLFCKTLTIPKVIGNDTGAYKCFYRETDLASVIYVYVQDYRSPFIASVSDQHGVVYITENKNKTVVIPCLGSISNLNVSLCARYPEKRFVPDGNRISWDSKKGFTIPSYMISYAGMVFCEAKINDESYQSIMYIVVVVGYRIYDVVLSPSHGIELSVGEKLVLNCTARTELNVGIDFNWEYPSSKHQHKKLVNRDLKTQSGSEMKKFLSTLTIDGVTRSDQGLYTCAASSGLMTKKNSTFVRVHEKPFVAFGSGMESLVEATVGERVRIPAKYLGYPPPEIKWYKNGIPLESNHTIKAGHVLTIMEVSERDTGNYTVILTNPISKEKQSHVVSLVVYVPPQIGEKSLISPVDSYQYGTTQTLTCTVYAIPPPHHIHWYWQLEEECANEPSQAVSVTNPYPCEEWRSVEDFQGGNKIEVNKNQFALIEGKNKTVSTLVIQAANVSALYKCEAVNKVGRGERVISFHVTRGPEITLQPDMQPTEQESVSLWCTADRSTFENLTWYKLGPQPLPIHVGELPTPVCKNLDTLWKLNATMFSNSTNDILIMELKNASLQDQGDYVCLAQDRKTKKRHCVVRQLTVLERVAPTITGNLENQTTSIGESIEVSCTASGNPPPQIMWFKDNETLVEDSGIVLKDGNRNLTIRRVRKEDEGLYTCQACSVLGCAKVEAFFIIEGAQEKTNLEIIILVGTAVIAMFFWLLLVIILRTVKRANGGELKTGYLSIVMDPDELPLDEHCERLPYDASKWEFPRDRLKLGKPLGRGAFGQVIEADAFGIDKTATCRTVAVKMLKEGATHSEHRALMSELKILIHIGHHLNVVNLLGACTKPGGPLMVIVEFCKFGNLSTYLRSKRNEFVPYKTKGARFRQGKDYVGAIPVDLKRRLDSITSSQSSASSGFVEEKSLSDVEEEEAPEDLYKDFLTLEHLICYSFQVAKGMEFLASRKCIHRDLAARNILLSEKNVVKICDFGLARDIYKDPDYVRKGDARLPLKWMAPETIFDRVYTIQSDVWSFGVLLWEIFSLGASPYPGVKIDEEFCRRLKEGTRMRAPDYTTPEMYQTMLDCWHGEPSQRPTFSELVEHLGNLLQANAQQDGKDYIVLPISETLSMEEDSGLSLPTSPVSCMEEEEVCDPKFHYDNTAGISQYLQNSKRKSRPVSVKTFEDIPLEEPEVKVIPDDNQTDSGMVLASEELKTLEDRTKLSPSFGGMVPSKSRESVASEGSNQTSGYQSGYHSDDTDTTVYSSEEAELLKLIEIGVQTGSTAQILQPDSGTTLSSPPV
Sequence of Met (phospho-Met, HGF-stimulated PC-3 prostate cancer cells) (P08581 25-1390): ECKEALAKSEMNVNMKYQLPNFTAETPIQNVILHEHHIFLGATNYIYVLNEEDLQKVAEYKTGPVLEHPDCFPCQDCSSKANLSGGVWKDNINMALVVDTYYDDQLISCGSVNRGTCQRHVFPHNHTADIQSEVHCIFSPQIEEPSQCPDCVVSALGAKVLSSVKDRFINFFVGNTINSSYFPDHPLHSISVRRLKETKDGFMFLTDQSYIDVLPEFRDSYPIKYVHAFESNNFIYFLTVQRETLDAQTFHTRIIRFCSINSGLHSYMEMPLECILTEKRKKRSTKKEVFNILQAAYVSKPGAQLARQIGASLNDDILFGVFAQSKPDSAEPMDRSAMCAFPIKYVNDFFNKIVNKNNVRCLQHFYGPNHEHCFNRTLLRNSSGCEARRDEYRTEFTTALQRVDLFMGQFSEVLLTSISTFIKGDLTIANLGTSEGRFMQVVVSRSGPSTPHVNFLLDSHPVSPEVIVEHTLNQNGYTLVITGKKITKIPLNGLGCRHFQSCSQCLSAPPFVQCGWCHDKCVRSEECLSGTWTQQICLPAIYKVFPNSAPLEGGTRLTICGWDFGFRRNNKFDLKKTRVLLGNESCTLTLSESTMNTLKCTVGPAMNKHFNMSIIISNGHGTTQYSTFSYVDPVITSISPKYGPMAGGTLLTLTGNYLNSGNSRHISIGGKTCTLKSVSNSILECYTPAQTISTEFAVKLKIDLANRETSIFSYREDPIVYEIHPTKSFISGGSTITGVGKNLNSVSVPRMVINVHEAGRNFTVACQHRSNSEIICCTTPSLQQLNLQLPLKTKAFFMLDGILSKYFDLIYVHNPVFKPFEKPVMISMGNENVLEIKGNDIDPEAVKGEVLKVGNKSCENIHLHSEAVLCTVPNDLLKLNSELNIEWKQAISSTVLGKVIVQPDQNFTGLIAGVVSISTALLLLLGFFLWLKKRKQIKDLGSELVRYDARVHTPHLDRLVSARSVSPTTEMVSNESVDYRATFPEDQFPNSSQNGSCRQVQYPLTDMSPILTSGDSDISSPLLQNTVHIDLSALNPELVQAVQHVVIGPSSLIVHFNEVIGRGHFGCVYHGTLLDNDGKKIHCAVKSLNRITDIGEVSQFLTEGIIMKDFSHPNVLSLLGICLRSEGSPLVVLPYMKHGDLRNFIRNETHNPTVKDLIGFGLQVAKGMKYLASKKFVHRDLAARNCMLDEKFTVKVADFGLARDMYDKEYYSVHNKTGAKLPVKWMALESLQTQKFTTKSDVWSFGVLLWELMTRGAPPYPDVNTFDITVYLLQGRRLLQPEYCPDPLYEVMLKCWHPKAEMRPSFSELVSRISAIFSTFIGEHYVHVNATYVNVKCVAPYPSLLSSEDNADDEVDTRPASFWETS

The IC50 is the concentration at which inhibition is half-maximal. As for `COc1cc2nccc(Oc3ccc(NC(=O)c4cnc(C)c(-c5ccc(F)cc5)c4O)cc3F)c2nc1OC` [Compound 28, N-[4-[(6,7-Dimethoxy-1,5-naphthyridin-4-yl)oxy]-3-fluorophenyl]-5-(4-fluorophenyl)-4-hydroxy-6-methylpyridine-3-carboxamide], the half-inhibitory concentration (IC50) in experiment [1] and in experiment [2] was less than 100 nM throughout.

On to `COc1cc2nccc(Oc3ccc(NC(=O)c4cn(C(C)C)c(C)c(-c5ccccc5)c4=O)cc3F)c2nc1OC` [Compound 29, N-[4-[(6,7-Dimethoxy-1,5-naphthyridin-4-yl)oxy]-3-fluorophenyl]-6-methyl-4-oxo-5-phenyl-1-propan-2-ylpyridine-3-carboxamide hydrochloride], for which the results for the IC50 in experiment [1] and in experiment [2] were 100 to 300 nM and less than 100 nM, respectively.

For the compound `COc1cc2nccc(Oc3ccc(NC(=O)c4cnc(C)c(-c5ccc(F)cc5)c4O)cc3)c2nc1OC` [Compound 119, N-[4-[(6,7-Dimethoxy-1,5-naphthyridin-4-yl)oxy]phenyl]-5-(4-fluorophenyl)-4-hydroxy-6-methylpyridine-3-carboxamide], the IC50 in experiment [1] and in experiment [2] was less than 100 nM throughout.

As for `COc1cnc2c(Oc3ccc(NC(=O)c4cncc(-c5ccc(F)cc5)c4O)cc3F)ccnc2c1` [Compound 120, N-[3-Fluoro-4-[(7-methoxy-1,5-naphthyridin-4-yl)oxy]phenyl]-5-(4-fluorophenyl)-4-hydroxypyridine-3-carboxamide], the IC50 in experiment [1] and in experiment [2] was less than 100 nM each time.

Turning to `COc1cnc2c(Oc3ccc(NC(=O)c4cn(C(C)C)c(C)c(-c5ccc(F)cc5)c4=O)cc3F)ccnc2c1` [Compound 121, N-[3-Fluoro-4-[(7-methoxy-1,5-naphthyridin-4-yl)oxy]phenyl]-5-(4-fluorophenyl)-6-methyl-4-oxo-1-propan-2-ylpyridine-3-carboxamide], the half-maximal inhibitory concentration (IC50) in experiment [1] was greater than 300 nM; in experiment [2], less than 100 nM.

For the compound `COc1cc2nccc(Oc3ccc(NC(=O)c4cn(C(C)C)cc(-c5ccc(F)cc5)c4=O)cc3)c2nc1OC` [Compound 122, N-[4-[(6,7-Dimethoxy-1,5-naphthyridin-4-yl)oxy]phenyl]-5-(4-fluorophenyl)-4-oxo-1-propan-2-ylpyridine-3-carboxamide], the results for the IC50 in experiment [1] and in experiment [2] were 100 to 300 nM and less than 100 nM, respectively.

As for `COc1cnc2c(Oc3ccc(NC(=O)c4cn(C(C)C)cc(-c5ccc(F)cc5)c4=O)cc3F)ccnc2c1` [Compound 123, N-[3-Fluoro-4-[(7-methoxy-1,5-naphthyridin-4-yl)oxy]phenyl]-5-(4-fluorophenyl)-4-oxo-1-propan-2-ylpyridine-3-carboxamide], the IC50 in experiment [1] is greater than 300 nM; in experiment [2], less than 100 nM.

Take `COc1cc2nccc(Oc3ccc(NC(=O)c4cn(-c5cccnc5)cc(-c5ccc(F)cc5)c4=O)cc3F)c2nc1OC` [Compound 125, N-[4-[(6,7-Dimethoxy-1,5-naphthyridin-4-yl)oxy]-3-fluorophenyl]-5-(4-fluorophenyl)-4-oxo-1-pyridin-3-ylpyridine-3-carboxamide]: the half-inhibitory concentration (IC50) in experiment [1] was greater than 300 nM; in experiment [2], less than 100 nM.

Regarding `COc1cc2nccc(Oc3ccc(NC(=O)c4cn(OC)cc(-c5ccc(F)cc5)c4=O)cc3F)c2nc1OC` [Compound 126, N-[4-[(6,7-Dimethoxy-1,5-naphthyridin-4-yl)oxy]-3-fluorophenyl]-5-(4-fluorophenyl)-1-methoxy-4-oxopyridine-3-carboxamide], the IC50 in experiment [1] and in experiment [2] was less than 100 nM in each case.

For the compound `COc1cc2nccc(Oc3ccc(NC(=O)c4cn(OC)cc(-c5ccc(F)cc5)c4=O)cc3)c2nc1OC` [Compound 127, N-[4-[(6,7-Dimethoxy-1,5-naphthyridin-4-yl)oxy]phenyl]-5-(4-fluorophenyl)-1-methoxy-4-oxopyridine-3-carboxamide], the IC50 in experiment [1] and in experiment [2] was less than 100 nM in each case.

Take `COc1cnc2c(Oc3ccc(NC(=O)c4cn(OC)cc(-c5ccc(F)cc5)c4=O)cc3F)ccnc2c1` [Compound 128, N-[3-Fluoro-4-[(7-methoxy-1,5-naphthyridin-4-yl)oxy]phenyl]-5-(4-fluorophenyl)-1-methoxy-4-oxopyridine-3-carboxamide]: the half-maximal inhibitory concentration (IC50) in experiment [1] and in experiment [2] was less than 100 nM each time.

Turning to `COc1nc2c(Oc3ccc(NC(=O)c4cncc(-c5ccc(F)cc5)c4O)cc3F)ccnc2cc1Br` [Compound 129, N-[4-[(7-Bromo-6-methoxy-1,5-naphthyridin-4-yl)oxy]-3-fluorophenyl]-5-(4-fluorophenyl)-4-hydroxypyridine-3-carboxamide], the IC50 in experiment [1] was less than 100 nM; in experiment [2] it was 100 to 300 nM.

`COc1nc2c(Oc3ccc(NC(=O)c4cnc(C)c(-c5ccc(F)cc5)c4O)cc3F)ccnc2cc1Br` [Compound 130, N-[4-[(7-Bromo-6-methoxy-1,5-naphthyridin-4-yl)oxy]-3-fluorophenyl]-5-(4-fluorophenyl)-4-hydroxy-6-methylpyridine-3-carboxamide]: the IC50 in experiment [1] and in experiment [2] was less than 100 nM in each case.

With `COc1nc2c(Oc3ccc(NC(=O)c4cn(C(C)C)cc(-c5ccc(F)cc5)c4=O)cc3F)ccnc2cc1Br` [Compound 131, N-[4-[(7-Bromo-6-methoxy-1,5-naphthyridin-4-yl)oxy]-3-fluorophenyl]-5-(4-fluorophenyl)-4-oxo-1-propan-2-ylpyridine-3-carboxamide], the IC50 was greater than 300 nM in experiment [1] and less than 100 nM in experiment [2].

As for `COc1nc2c(Oc3ccc(NC(=O)c4cn(C(C)C)c(C)c(-c5ccc(F)cc5)c4=O)cc3F)ccnc2cc1Br` [Compound 132, N-[4-[(7-Bromo-6-methoxy-1,5-naphthyridin-4-yl)oxy]-3-fluorophenyl]-5-(4-fluorophenyl)-6-methyl-4-oxo-1-propan-2-ylpyridine-3-carboxamide], the IC50 in experiment [1] and in experiment [2] was 100 to 300 nM in each case.

Turning to `COC(=O)c1cnc2c(Oc3ccc(NC(=O)c4cnc(C)c(-c5ccc(F)cc5)c4O)cc3F)ccnc2c1` [Compound 138, Methyl 8-[2-fluoro-4-[[5-(4-fluorophenyl)-4-hydroxy-6-methylpyridine-3-carbonyl]amino]phenoxy]-1,5-naphthyridine-3-carboxylate], the concentration for half-maximal inhibition (IC50) in experiment [1] is 100 to 300 nM; in experiment [2], greater than 300 nM.

For the compound `COc1cc2nccc(Oc3ccc(NC(=O)c4cn(C(C)(C)C)c(C)c(-c5ccc(F)cc5)c4=O)cc3F)c2nc1OC` [Compound 139, 1-tert-Butyl-N-[4-[(6,7-dimethoxy-1,5-naphthyridin-4-yl)oxy]-3-fluorophenyl]-5-(4-fluorophenyl)-6-methyl-4-oxopyridine-3-carboxamide], the values for the IC50 in experiment [1] and in experiment [2] were greater than 300 nM and 100 to 300 nM, respectively.

In the case of `COc1cc2nccc(Oc3ccc(NC(=O)c4cn(-c5cnn(C)c5)c(C)c(-c5ccc(F)cc5)c4=O)cc3F)c2nc1OC` [Compound 140, N-[4-[(6,7-Dimethoxy-1,5-naphthyridin-4-yl)oxy]-3-fluorophenyl]-5-(4-fluorophenyl)-6-methyl-1-(1-methylpyrazol-4-yl)-4-oxopyridine-3-carboxamide], the half-inhibitory concentration (IC50) is greater than 300 nM in experiment [1] and less than 100 nM in experiment [2].

On to `COc1cc2nccc(Oc3ccc(NC(=O)c4cnc(C)c(-c5ccc(F)cc5)c4O)cc3F)c2nc1Br` [Compound 142, N-[4-[(6-Bromo-7-methoxy-1,5-naphthyridin-4-yl)oxy]-3-fluorophenyl]-5-(4-fluorophenyl)-4-hydroxy-6-methylpyridine-3-carboxamide], for which the IC50 in experiment [1] and in experiment [2] was less than 100 nM in each case.

With `COc1cc2nccc(Oc3ccc(NC(=O)c4cn(C(C)C)c(C)c(-c5ccc(F)cc5)c4=O)cc3F)c2nc1Br` [Compound 143, N-[4-[(6-Bromo-7-methoxy-1,5-naphthyridin-4-yl)oxy]-3-fluorophenyl]-5-(4-fluorophenyl)-6-methyl-4-oxo-1-propan-2-ylpyridine-3-carboxamide], the results for the 50% inhibitory concentration (IC50) in experiment [1] and in experiment [2] were 100 to 300 nM and less than 100 nM, respectively.

For `COCCOc1nc2c(Oc3ccc(NC(=O)c4cnc(C)c(-c5ccc(F)cc5C)c4O)cc3F)ccnc2cc1OC` [Compound 144, N-[3-Fluoro-4-[[7-methoxy-6-(2-methoxyethoxy)-1,5-naphthyridin-4-yl]oxy]phenyl]-5-(4-fluoro-2-methylphenyl)-4-hydroxy-6-methylpyridine-3-carboxamide], the IC50 in experiment [1] and in experiment [2] was less than 100 nM in each case.

Consider `COc1cnc2c(Oc3ccc(NC(=O)c4cncc(-c5ccc(F)cc5)c4O)cc3)ccnc2c1` [Compound 146, 5-(4-Fluorophenyl)-4-hydroxy-N-[4-[(7-methoxy-1,5-naphthyridin-4-yl)oxy]phenyl]pyridine-3-carboxamide], for which the half-inhibitory concentration (IC50) in experiment [1] and in experiment [2] was less than 100 nM each time.

In the case of `COc1cnc2c(Oc3ccc(NC(=O)c4cn(C(C)C)c(C)c(-c5ccc(F)cc5)c4=O)cc3)ccnc2c1` [Compound 148, 5-(4-Fluorophenyl)-N-[4-[(7-methoxy-1,5-naphthyridin-4-yl)oxy]phenyl]-6-methyl-4-oxo-1-propan-2-ylpyridine-3-carboxamide], the half-maximal inhibitory concentration (IC50) in experiment [1] is greater than 300 nM; in experiment [2], less than 100 nM.

On to `Cc1ncc(C(=O)Nc2ccc(Oc3ccnc4cc(C(F)(F)F)cnc34)c(F)c2)c(O)c1-c1ccc(F)cc1` [Compound 151, 5-(4-Fluorophenyl)-N-[3-fluoro-4-[[7-(trifluoromethyl)-1,5-naphthyridin-4-yl]oxy]phenyl]-4-hydroxy-6-methylpyridine-3-carboxamide], for which the concentration for half-maximal inhibition (IC50) in experiment [1] and in experiment [2] was less than 100 nM each time.
